The source of these data is patent publication US8568973B2, “Cell-signaling assays” (Molecular Devices, LLC, priority 1999, dated 2013).

For the experiment, the system named is T47D cells. Description: Whole-cell cAMP luminescence polarization assay of modulators (FIG. 13). It counts as cell-based. How it is done: • (a) Preparation of 1:75 cAMP antibody working stock. Dilute the 300× cAMP antibody stock 1:75 in cAMP assay buffer (0.05 M HEPES, pH 7.5, 150 mM NaCl, 0.1% bovine gamma globulin) (e.g., by adding 14 μL of the 300× cAMP antibody stock to 1036 μL of cAMP assay buffer). 10 μL of this working stock solution will be added to the assay plate, as indicated in the plate layout in FIG. 9. • (b) Preparation of cAMP tracer working stock. Dilute the 500× cAMP tracer stock 1:125 in cAMP assay buffer (e.g., by adding 10 μL of the 500× cAMP tracer stock to 1240 μL of cAMP assay buffer). 10 μL of this working stock solution will be added to the assay plate, as indicated in the plate layout in FIG. 9. • (c) Preparation of cAMP calibration curve. Dilute the cAMP calibrator 1:25 in cAMP assay buffer (e.g., by adding 10 μL cAMP calibrator to 240 μL cAMP assay buffer) to give 10 μM cAMP calibrator or 400 pmol in final assay. Prepare seven 1:3 serial dilutions to give 3.33, 1.11, 0.37, 0.12, 0.041, 0.014, and 0.005 μM cAMP (133 to 0.125 pmol in final assay). • (d) Preparation of samples. […] A plastic plate cover may be used to prevent possible evaporation, but care should be taken with plastic plate sealers, which may introduce undesirable background fluorescence. • (e) Read plate using a light detection device capable of generating and detecting polarized light. […]

The structures appear in SMILES notation. Entries after “also recorded” stand apart in the source; their conditions may differ.

In the case of `CC(C)NCC(O)c1ccc(O)c(O)c1` (centres unmarked) [isoproterenol], the “cAMP production (cAMP levels)” value (cultured adherent T47D cells, whole cell preparation, forskolin protocol 20 μM final, 15 minutes at 37° C.) was “stimulates cAMP production; also recorded: stimulated”.

As to `CC(C)NCC(O)COc1cccc2ccccc12` (centres unmarked) [propranolol], the “effect on isoproterenol-stimulated cAMP production” value (cultured T47D cells, endogenous beta receptors, antagonist added to isoproterenol stimulation) is “reversed; also recorded: inhibited”.
